Experimental data taken from patent US8501446B2 (Vertex Pharmaceuticals Incorporated, priority 2004, dated 2013).
Read-outs that look alike come from different tables or passages of the source.

Experiments:
Assay type in all cases: biochemical
[1] = target: T1, JAK3 (Homo sapiens, UniProt P52333); assay: JAK3 inhibition assay (standard radioactive enzyme assay); conditions: average Ki if more than one value determined
T1 sequence (P52333 1-1124): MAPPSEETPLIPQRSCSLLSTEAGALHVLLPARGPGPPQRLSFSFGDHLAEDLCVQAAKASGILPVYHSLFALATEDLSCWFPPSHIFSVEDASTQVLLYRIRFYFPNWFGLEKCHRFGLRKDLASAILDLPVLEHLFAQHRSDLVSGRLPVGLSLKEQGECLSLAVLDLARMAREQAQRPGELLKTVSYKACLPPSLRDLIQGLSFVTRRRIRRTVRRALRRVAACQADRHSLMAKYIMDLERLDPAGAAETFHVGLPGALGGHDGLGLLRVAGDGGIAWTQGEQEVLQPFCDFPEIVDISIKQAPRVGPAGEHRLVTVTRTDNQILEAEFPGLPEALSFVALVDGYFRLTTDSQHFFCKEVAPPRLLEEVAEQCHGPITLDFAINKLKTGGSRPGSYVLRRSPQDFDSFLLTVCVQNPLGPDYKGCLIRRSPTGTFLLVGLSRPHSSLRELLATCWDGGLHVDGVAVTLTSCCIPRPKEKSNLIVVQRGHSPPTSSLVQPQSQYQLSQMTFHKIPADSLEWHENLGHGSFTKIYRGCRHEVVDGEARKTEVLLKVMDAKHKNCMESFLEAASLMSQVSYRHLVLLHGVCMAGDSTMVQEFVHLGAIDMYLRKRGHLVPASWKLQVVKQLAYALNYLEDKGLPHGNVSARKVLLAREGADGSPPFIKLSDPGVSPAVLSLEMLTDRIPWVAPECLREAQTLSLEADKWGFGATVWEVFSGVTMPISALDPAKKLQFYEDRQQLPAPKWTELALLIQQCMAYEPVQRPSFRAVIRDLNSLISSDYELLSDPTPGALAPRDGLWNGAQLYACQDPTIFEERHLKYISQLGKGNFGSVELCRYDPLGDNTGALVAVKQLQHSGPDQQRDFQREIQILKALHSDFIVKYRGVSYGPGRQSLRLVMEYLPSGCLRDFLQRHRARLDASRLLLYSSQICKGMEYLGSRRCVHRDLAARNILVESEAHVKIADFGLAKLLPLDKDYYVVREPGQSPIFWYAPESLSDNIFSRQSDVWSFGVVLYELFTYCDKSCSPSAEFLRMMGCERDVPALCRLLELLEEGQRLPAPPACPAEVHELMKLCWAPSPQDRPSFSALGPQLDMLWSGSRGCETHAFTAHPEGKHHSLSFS

[2] = target: ROCK (Homo sapiens, UniProt Q13464); assay: ROCK inhibition assay, standard radioactive enzyme assay ("33P")
Procedure: Some compounds were screened for their ability to inhibit ROCK using a standard radioactive enzyme assay. Assays were carried out in a solution containing 100 mM HEPES (pH 7.5), 10 mM MgCl2, 25 mM NaCl, 2 mM DTT, and 1.5% DMSO. Final substrate concentrations in the assay were 13 μM [γ-^33P] ATP (25 mCi ^33P ATP/mmol ATP, Perkin Elmer, Cambridge, Mass./Sigma Chemicals, St Louis, Mo.) and 27 μM Myelin Basic Protein (MBP). Final enzyme concentration in the assay was 5 nM ROCK. Assays were carried out at room temperature. 1.5 μl of DMSO stock containing serial dilutions of the compound of the present invention (concentrations ranging from 10 μM to 2.6 nM) was placed in a 96 well plate. 50 μl of Solution 1 (100 mM HEPES (pH 7.5), 10 mM MgCl2, […]) was added to the plate. The reaction was initiated by addition of 50 μl of Solution 2 (100 mM HEPES (pH 7.5), 10 mM MgCl2, 4 mM DTT, […] and 10 nM ROCK). After 2 hours the reaction was quenched with 50 μL of 30% trichloroacetic acid (TCA, Fisher) containing 9 mM ATP. Transfer of 140 μL of the quenched reaction to a glass fiber filter plate (Corning, Cat. No. 3511) was followed by washing 3 times with 5% TCA. 50 μL of Optima Gold scintillation fluid (Perkin Elmer) was added and the plates were counted on a Top Count (Perkin Elmer). After removing mean background values for all of the data points the data was fit using Prism software to obtain a Ki(app).

[3] = target: JAK2 (Homo sapiens, UniProt O60674); assay: JAK2 inhibition assay (radioactive enzyme assay, as for JAK3); conditions: average Ki if more than one value determined
Outline: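 Both kinases: poly(Glu)4Tyr substrate in 100 mM HEPES pH 7.4, 10 mM MgCl2, 1 mM DTT. Run 20 min at 25° C, TCA stop, filter-bound ³³P counted, Ki(app) fitted after background subtraction. JAK3: final [γ-³³P]ATP 5 μM, enzyme added as 2 nM solution. JAK2: final poly(Glu)4Tyr 15 μM, final ATP 12 μM.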

[4] = target: T2, full length Aurora-A (AA 1-403) (Homo sapiens, UniProt O14965); assay: Aurora-A inhibition assay, standard coupled enzyme system; conditions: average Ki if more than one value determined
T2 construct: full length Aurora-A (AA 1-403)
T2 sequence (O14965 1-403): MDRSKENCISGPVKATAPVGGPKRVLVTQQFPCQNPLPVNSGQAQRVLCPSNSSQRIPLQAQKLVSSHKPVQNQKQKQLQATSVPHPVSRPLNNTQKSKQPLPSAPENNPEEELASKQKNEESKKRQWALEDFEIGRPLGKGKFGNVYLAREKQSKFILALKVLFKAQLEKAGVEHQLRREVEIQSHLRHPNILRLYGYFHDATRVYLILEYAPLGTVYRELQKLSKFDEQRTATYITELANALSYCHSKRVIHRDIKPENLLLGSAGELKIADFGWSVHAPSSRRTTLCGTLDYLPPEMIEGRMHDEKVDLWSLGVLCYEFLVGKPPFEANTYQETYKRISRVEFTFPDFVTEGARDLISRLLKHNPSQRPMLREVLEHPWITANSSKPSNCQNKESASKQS

[5] = target: T3, ROCK I (AA 6-553) (Homo sapiens, UniProt Q13464); assay: ROCK inhibition assay, standard coupled enzyme system ("Enzyme"); conditions: enzyme-linked assay
T3 construct: ROCK I (AA 6-553)
Outline: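 ROCK I (AA 6-553) at 45 nM and 30 °C with 45 μM ATP and 200 μM peptide, in 100 mM HEPES pH 7.5, 10 mM MgCl2, 25 mM NaCl, 2 mM DTT, 1.5% DMSO. ADP output read by a PK/LDH coupled system: 2.5 mM PEP, 350 μM NADH, 30 μg/ml PK, 10 μg/ml LDH.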

[6] = target: Aurora-B (Homo sapiens, UniProt Q96GD4); assay: Aurora-B inhibition assay, radioactive assay; conditions: average Ki if more than one value determined
Outline: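 Radiometric [γ-33P]ATP kinase assay run as described for JAK3/ROCK but with Aurora-B protein; 33P incorporation into substrate measured by filter capture and scintillation counting after TCA quench. Background-subtracted data fit to give Ki(app).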

[7] = target: T4, Aurora-C (Homo sapiens, UniProt Q9UQB9); assay: Aurora-C inhibition assay, coupled enzyme system as for Aurora-A; conditions: average Ki if more than one value determined
T4 sequence (Q9UQB9 1-309): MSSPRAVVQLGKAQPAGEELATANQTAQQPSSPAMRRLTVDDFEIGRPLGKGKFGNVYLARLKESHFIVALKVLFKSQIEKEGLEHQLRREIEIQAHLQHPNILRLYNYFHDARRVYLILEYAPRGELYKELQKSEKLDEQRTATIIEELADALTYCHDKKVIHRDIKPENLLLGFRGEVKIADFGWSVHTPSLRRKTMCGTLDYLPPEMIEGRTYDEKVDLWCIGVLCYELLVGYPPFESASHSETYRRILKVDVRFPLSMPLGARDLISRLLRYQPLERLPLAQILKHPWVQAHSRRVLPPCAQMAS
Outline: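 Coupled PK/LDH NADH-depletion assay with 35 nM enzyme, 200 μM ATP and 800 μM LRRASLG peptide in 100 mM HEPES pH 7.5, 10 mM MgCl2, 25 mM NaCl, 1 mM DTT, 3% DMSO at 30 °C. Compound (0.002-30 μM) was preincubated 10 min before ATP start; rates over 10 min gave Ki by nonlinear regression. Aurora-C run the same way.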

Chain of JAK2 (O60674 whole entry, species assumed): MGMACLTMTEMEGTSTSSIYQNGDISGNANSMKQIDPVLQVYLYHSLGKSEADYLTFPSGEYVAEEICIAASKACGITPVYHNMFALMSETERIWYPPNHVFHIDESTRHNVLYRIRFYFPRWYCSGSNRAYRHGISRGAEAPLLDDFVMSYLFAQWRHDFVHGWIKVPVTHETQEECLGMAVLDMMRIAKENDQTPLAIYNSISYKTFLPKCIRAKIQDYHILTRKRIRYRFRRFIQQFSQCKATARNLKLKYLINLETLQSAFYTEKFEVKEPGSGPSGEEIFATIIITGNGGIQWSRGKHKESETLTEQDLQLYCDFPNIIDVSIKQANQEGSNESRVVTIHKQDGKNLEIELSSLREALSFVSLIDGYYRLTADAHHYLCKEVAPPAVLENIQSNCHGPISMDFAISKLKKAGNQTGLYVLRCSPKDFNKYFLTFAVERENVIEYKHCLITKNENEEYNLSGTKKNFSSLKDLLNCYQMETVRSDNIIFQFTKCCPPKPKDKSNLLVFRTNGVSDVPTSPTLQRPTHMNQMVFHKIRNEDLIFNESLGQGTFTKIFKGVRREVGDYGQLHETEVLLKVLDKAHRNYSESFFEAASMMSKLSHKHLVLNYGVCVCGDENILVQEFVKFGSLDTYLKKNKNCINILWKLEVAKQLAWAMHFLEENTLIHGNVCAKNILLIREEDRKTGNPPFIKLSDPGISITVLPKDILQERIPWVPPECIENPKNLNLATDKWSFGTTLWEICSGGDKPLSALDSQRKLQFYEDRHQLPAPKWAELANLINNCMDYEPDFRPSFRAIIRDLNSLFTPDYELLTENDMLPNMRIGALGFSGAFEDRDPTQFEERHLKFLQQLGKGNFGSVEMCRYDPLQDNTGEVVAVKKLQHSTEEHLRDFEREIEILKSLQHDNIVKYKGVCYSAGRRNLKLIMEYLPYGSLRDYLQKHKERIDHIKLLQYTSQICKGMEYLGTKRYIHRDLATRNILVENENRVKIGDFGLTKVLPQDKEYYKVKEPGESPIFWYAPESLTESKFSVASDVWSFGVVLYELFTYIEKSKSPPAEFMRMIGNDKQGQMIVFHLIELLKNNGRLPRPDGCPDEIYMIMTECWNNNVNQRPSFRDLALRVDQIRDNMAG
Chain of Aurora-B (Q96GD4 whole entry): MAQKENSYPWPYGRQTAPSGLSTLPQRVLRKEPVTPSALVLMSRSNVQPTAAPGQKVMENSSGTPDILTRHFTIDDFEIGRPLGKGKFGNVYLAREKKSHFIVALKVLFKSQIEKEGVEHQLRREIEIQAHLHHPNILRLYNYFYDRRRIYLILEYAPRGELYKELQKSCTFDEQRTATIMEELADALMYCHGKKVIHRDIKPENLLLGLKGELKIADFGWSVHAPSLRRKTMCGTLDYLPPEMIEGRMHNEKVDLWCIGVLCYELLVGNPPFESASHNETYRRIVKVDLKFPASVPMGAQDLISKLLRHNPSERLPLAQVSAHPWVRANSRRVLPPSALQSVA
Chain of ROCK (Q13464 whole entry): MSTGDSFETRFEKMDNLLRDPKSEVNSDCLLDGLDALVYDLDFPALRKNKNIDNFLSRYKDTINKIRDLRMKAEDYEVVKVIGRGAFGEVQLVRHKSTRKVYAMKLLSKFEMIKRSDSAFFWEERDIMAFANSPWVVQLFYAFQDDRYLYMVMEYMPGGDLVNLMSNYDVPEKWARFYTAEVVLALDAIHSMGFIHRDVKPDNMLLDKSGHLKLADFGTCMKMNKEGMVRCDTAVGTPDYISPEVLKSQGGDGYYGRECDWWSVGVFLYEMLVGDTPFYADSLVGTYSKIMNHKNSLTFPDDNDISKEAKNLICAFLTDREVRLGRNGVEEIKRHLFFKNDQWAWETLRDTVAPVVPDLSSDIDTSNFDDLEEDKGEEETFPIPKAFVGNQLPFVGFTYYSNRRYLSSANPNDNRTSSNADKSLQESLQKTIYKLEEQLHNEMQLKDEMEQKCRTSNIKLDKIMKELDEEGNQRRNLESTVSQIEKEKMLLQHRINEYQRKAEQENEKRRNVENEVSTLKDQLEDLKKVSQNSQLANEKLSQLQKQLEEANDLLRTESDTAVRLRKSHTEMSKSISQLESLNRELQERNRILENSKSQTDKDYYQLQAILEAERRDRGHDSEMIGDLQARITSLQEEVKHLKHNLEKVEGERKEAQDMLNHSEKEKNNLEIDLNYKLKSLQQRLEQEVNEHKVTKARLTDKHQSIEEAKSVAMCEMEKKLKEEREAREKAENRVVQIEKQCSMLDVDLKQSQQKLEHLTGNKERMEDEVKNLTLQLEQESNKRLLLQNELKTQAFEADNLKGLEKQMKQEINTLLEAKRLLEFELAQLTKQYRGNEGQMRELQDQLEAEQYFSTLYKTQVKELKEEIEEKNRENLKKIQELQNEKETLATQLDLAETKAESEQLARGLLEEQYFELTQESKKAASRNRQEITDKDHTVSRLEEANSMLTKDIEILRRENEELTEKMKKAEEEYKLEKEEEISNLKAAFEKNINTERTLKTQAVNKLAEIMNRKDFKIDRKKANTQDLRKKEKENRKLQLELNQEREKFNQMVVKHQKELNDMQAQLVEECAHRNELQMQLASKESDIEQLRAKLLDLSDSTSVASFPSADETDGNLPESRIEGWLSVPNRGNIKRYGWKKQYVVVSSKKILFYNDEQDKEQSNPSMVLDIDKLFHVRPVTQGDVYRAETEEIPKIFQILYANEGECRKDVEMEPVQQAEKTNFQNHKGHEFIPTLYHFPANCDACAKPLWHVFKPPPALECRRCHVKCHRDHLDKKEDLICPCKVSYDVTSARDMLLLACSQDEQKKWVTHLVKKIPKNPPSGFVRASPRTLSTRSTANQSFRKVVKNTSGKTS
T3 sequence (Q13464 6-553, species assumed): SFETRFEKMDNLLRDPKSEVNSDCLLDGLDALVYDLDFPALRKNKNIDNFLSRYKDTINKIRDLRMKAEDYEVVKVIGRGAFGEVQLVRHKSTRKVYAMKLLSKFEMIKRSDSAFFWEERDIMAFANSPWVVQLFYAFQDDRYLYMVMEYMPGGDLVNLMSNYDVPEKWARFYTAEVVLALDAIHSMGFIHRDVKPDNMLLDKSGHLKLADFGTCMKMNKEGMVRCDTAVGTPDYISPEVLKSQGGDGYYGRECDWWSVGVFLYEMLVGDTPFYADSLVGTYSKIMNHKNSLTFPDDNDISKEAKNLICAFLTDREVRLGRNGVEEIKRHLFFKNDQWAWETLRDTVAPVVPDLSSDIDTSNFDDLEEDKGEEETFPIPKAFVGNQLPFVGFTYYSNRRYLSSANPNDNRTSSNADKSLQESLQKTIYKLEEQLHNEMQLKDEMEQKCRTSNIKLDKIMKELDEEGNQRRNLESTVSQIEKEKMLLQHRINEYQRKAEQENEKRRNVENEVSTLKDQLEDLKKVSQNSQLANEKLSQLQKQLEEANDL

Row | Ki [1] [µM] | Ki [2] [µM] | Ki [3] [µM] | Ki [4] [µM] | Ki [5] [µM] | Compound | other results
1 |  | 0.5 to 5 |  | < 0.5 |  | c1ccc(-c2cnc3[nH]cc(-c4ccccc4)c3c2)cc1 [Compound 213] | 
2 |  | 0.5 to 5 |  | 0.5 to 5 |  | COc1cccc(-c2c[nH]c3ncc(-c4ccccc4)cc23)c1 [Compound 214] | 
3 |  | 0.5 to 5 |  | 0.5 to 5 |  | CCOc1cccc(-c2c[nH]c3ncc(-c4ccccc4)cc23)c1 [Compound 215] | 
4 |  | 0.5 to 5 |  | < 0.5 |  | COc1ccc(OC)c(-c2c[nH]c3ncc(-c4ccccc4)cc23)c1 [Compound 216] | 
5 |  | 0.5 to 5 |  | < 0.5 | 0.5 to 5 | Brc1cnc2[nH]c(-c3ccccc3)c(-c3ccc(N4CCOCC4)cc3)c2c1 [Compound 217] | 
6 |  | < 0.5 |  | < 0.5 | < 0.5 | CS(=O)(=O)c1cccc(-c2c[nH]c3ncc(-c4ccccc4)cc23)c1 [Compound 218] | 
7 |  | 0.5 to 5 |  | < 0.5 | 0.5 to 5 | CN(C)C(=O)c1ccc(-c2c[nH]c3ncc(-c4ccccc4)cc23)cc1 [Compound 219] | 
8 |  |  | < 0.5 | < 0.5 | 0.5 to 5 | C[C@H](Nc1nc(-c2c[nH]c3ncc(Cl)cc23)ncc1C(F)(F)F)c1ccc(F)cc1 [Compound 371] | Ki [6]: < 0.5 µM; Ki [7]: < 0.5 µM
9 |  |  | < 0.5 | < 0.5 | 0.5 to 5 | CCc1cnc(-c2c[nH]c3ncc(Cl)cc23)nc1N[C@@H](C)c1ccc(F)cc1 [Compound 386] | Ki [6]: < 0.5 µM; Ki [7]: < 0.5 µM
10 |  |  | < 0.5 | < 0.5 | 0.5 to 5 | C[C@H](Nc1nc(-c2c[nH]c3ncc(Cl)cc23)ncc1F)C(=O)NCCn1cccc1 [Compound 443] | Ki [6]: < 0.5 µM; Ki [7]: < 0.5 µM
11 |  |  | 0.5 to 5 | < 0.5 | 0.5 to 5 | CC(=O)NCCNC(=O)[C@H](C)Nc1nc(-c2c[nH]c3ncc(Cl)cc23)ncc1F [Compound 444] | Ki [6]: < 0.5 µM; Ki [7]: < 0.5 µM
12 |  |  | 0.5 to 5 | < 0.5 | 0.5 to 5 | C[C@H](Nc1nc(-c2c[nH]c3ncc(Cl)cc23)ncc1F)C(=O)NCCc1ccc(S(N)(=O)=O)cc1 [Compound 446] | Ki [6]: < 0.5 µM; Ki [7]: < 0.5 µM
13 |  |  | 0.5 to 5 | < 0.5 | 0.5 to 5 | Cc1cc(N[C@@H](C)C(=O)NCCNS(C)(=O)=O)nc(-c2c[nH]c3ncc(Cl)cc23)n1 [Compound 450] | Ki [6]: < 0.5 µM; Ki [7]: < 0.5 µM

The next lines start with the compound.

Row | Compound | Ki [1] [µM] | Ki [2] [µM] | Ki [3] [µM] | Ki [4] [µM] | Ki [5] [µM] | other results
14 | CC(=O)N1CCCN(c2nccc(-c3c[nH]c4ncc(C(N)=O)cc34)n2)CC1 [Compound 1] | < 0.5 | 0.5 to 5 | < 0.5 |  |  | 
15 | c1ccc(CNc2nccc(-c3c[nH]c4ncc(-c5cccnc5)cc34)n2)cc1 [Compound 2] | < 0.5 | 0.5 to 5 | < 0.5 |  |  | 
16 | CC(=O)N1CCCN(c2nccc(-c3c[nH]c4ncc(-c5cccnc5)cc34)n2)CC1 [Compound 3] | < 0.5 | < 0.5 | < 0.5 |  |  | 
17 | CC(=O)N1CCCN(c2nccc(-c3c[nH]c4ncc(Cl)cc34)n2)CC1 [Compound 5] | < 0.5 | 0.5 to 5 | < 0.5 |  |  | 
18 | c1cncc(CNc2nccc(-c3c[nH]c4ncccc34)n2)c1 [Compound 6] | < 0.5 | < 0.5 | < 0.5 |  |  | 
19 | c1ccc(CNc2ccnc(-c3c[nH]c4ncccc34)n2)cc1 [Compound 11, Benzyl-[2-(1H-pyrrolo[2,3-b]pyridin-3-yl)-pyrimidin-4-yl]amine] |  |  |  |  |  | Ki ([1]; Ki(app)): < 0.5 µM; Ki ([2]; Ki(app)): < 0.5 µM; Ki ([3]; Ki(app)): < 0.5 µM
20 | COc1cnc2[nH]cc(-c3cc(NCc4ccccc4)ncn3)c2c1 [Compound 12] | < 0.5 | < 0.5 | < 0.5 |  |  | 
21 | COc1cnc2[nH]cc(-c3cc(N[C@H](C)c4ccccc4)ncn3)c2c1 [Compound 13] | < 0.5 | 0.5 to 5 | < 0.5 |  |  | 
22 | C[C@@H]1CCN(Cc2ccccc2)CC1N(C)c1cc(-c2c[nH]c3ncccc23)ncn1 (stereo partly drawn) [Compound 15] | 0.5 to 5 | 0.5 to 5 | 0.5 to 5 |  |  | 
23 | Fc1cccc(CNc2cc(-c3c[nH]c4ncccc34)ncn2)c1 [Compound 16] | < 0.5 | < 0.5 | < 0.5 |  |  | 
24 | C[C@@H]1CCNCC1N(C)c1cc(-c2c[nH]c3ncccc23)ncn1 (stereo partly drawn) [Compound 17] | 0.5 to 5 | < 0.5 | 0.5 to 5 |  |  | 
25 | COc1cc(-c2c[nH]c3ncccc23)ccc1C(N)=O [Compound 31, 2-Methoxy-4-(1H-pyrrolo[2,3-b]pyridin-3-yl)-benzamide] |  |  |  | < 0.5 |  | Ki ([2]; Ki(app)): < 0.5 µM
26 | Brc1cnc2[nH]c(-c3ccccc3)c(-c3ccccc3)c2c1 [Compound 211] |  | 0.5 to 5 |  | < 0.5 |  | 
